Legend:
neuroblastoma cells = assay: TUNEL assay for DNA fragmentation in cells; assay type: cell-based, human
Source text: Increased levels of ROS are known to induce oxidative stress which in turn cleaves DNA that leads to cell death. SsnB-induced DNA fragmentation in neuroblastoma cells was examined by terminal deoxynucleotidyl transferase dUTP nick end labeling (TUNEL) assay. In this assay, nicked DNA is identified by the addition of fluorophore-labeled dUTPs by enzyme terminal deoxynucleotidyl transferase (TdT) to the terminal ends of damaged DNA in apoptotic cells. The TUNEL-positive cells were quantitated by ImageJ programme and plotted. […] However, such TUNEL-positive cells were not detected in DMSO- or SsnB (1 μM)-treated cells.

[1] = test system: human neuroblastoma cell lines (SH-SY5Y, SKNF-1, NGP, IMR-32 and SK-N-BE(2) cells); assay: MTT cell viability assay; assay type: cell-based
Source text: Human neuroblastoma cell lines (SH-SY5Y, IMR-32, SK-N-BE(2) and SKNF-1 cells) were obtained from The American Type Culture Collection (ATCC; Manassas, Va.), and NGP cells were kind gift from Garrett M. Brodeur (The Children's Hospital of Philadelphia, Philadelphia, Pa.). All cell lines were maintained in complete Dulbecco's Modified Eagle's Medium (DMEM) supplemented with 10% fetal bovine serum (FBS; Atlanta Biologicals, Lawrenceville, Ga.) and 1× antibiotic-antimycotic solution (containing 100 U/ml penicillin, 100 μg/ml streptomycin and 0.25 μg/ml amphotericin B), and grown at 37° C. in a humidified incubator with 5% CO2. Stock solution of SsnB was prepared in dimethyl sulfoxide (DMSO). Cells treated with different concentrations of SsnB in DMEM with 10% FBS were grown for subsequent days. Cells treated with equal volume of DMSO were used as control.
The viability of SsnB-treated cells was determined by MTT assay following manufacturer's instructions (Roche diagnostics corporation, Indianapolis, Ind.). Briefly, cells (1×10^4 cells/well) grown in 96-well cell culture plate were incubated with or without SsnB in 100 μl of complete culture medium with 10% FBS. After treatments, cells were incubated with 10 μl of MTT reagent for 4 h and then incubated overnight in solubilization buffer (100 μl) at 37° C. Absorbance of the formazan product was read at 575 nm in spectramax spectrophotometer (Molecular Devices, Sunnyvale, Calif.). A reference wavelength of 690 nm was used to detect background. The measured absorption directly correlated with the number of viable cells in culture. The experiments were performed in triplicate and repeated at least three times.
MTT assay was carried out to examine the effects of SsnB on viability of all the above listed neuroblastoma cells. After 2 days (SH-SY5Y and IMR-32), 3 days (NGP cells) or 4 days (SKNF-1 and SK-N-BE(2) cells) treatment with SsnB (1, 5, 10 and 20 μM), MTT cell viability assays were performed.

[2] = test system: N-myc in IMR-32, NGP and SK-N-BE(2) cells; assay: N-myc protein level by Western blotting; assay type: cell-based, human
Procedure: After treatment with SsnB, cells were collected, washed with 1×PBS, and lysed with 1× cell lysis buffer (Cell Signaling Technology, Danvers, Mass.) containing phenylmethylsulfonyl fluoride (PMSF) and protease inhibitors (aprotinin and leupeptin) for 30 min on ice, and centrifuged at 12000×rpm for 10 min at 4° C. Supernatant (total cell protein) was collected and stored at −80° C. Protein concentration was determined by bicinchoninic acid method using BCA protein assay kit (Pierce/ThermoScientific, Waltham, Mass.). Equal amount of proteins were diluted with 5× Laemmli samples loading buffer and boiled for five minutes. The proteins were subjected to sodium dodecyl sulfate (SDS)-polyacrylamide gel electrophoresis and analyzed by Western blots. Briefly, after electrophoresis, proteins were transferred on polyvinylidene difluoride (PVDF) membrane at 100 volt for 3 h in cold room. […] Signals were detected by chemiluminiscence detection kit (Pierce/Thermo Fisher Scientific, Rockford, Ill.). […]
The level of N-myc proteins was evaluated from 2 days (IMR-32), 3 days (NGP cells) or 4 days (SK-N-BE(2) cells) SsnB-treated N-myc amplified neuroblastoma cells by Western blotting, and protein signal intensity was measured by ImageJ programme and plotted. […]

[3] = test system: intracellular GSH in neuroblastoma cells; assay: Cellular glutathione level, luminescence GSH-Glo assay; assay type: cell-based, human
Procedure: Cells treated with SsnB or DMSO were washed and re-suspended in PBS and the intracellular GSH level was measured by luminescence based GSH-Glo glutathione assay kit (Promega, Madison, Wis.) following manufacturer's protocol. The luminescence was monitored in a luminometer (Promega Biosystems, Sunnyvale, Calif.).
At the cellular level, reduced glutathione (GSH) protects cells from oxidative damage resulted from increased superoxides, peroxides and free radicals. Since SsnB induces oxidative stress, SsnB affect of intracellular levels of GSH in neuroblastoma cells was examined. After treatment with SsnB for 2 days (SH-SY5Y and IMR-32), 3 days (NGP cells) or 4 days (SKNF-1 and SK-N-BE(2) cells), the cellular GSH level was measured by luminescence based glutathione assay kit.

[4] = Homo sapiens, MTT, 2 days (SH-SY5Y, IMR-32), 3 days (NGP), 4 days (SKNF-1, SK-N-BE(2)), range over the cell lines

O=c1occ2c3c(ccc(O)c13)Oc1ccc(O)cc1-2 [SsnB, 8,5′-dihydroxy-4-phenyl-5,2′-oxidoisocoumarin]
number of TUNEL-positive cells vs control (neuroblastoma cells; SsnB 1 μM, nonsignificant): almost similar to DMSO-treated samples
number of TUNEL-positive cells vs control (neuroblastoma cells; SsnB 10 μM, all neuroblastoma cells): significantly higher
IC20 [1, 4]: 6 to 8 µM
IC50 [1, 4]: 10 to 12 µM
sensitivity towards SsnB treatment ([1]; NGP cell): moderately sensitive
sensitivity towards SsnB treatment ([1]; SH-SY5Y and IMR-32 cells): most sensitive
sensitivity towards SsnB treatment ([1]; SKNF-1 and SK-N-BE(2) cell lines): least sensitive
cell survival vs DMSO ([1]; SsnB 1 μM or 5 μM, p>0.05): No significant difference in cell survival
neuroblastoma cell death ([1]; SsnB 10 μM alone, MTT, range over cell lines (FIG. 5A)): 40-60%
cell viability vs DMSO ([1]; SsnB at and above 10 μM, p<0.05): significantly reduced the viability
reduction in N-myc protein expression ([2]; SsnB 1 μM, nonsignificant vs control): not observed
N-myc protein expression ([2]; SsnB 10 μM, 2 days (IMR-32), 3 days (NGP), 4 days (SK-N-BE(2))): inhibited the expression of N-myc protein
cellular GSH level ([3]; SsnB 1 μM): slightly higher or equal to control levels
cellular GSH level ([3]; SsnB 10 μM, 2, 3 or 4 days depending on line, p<0.05): ~40 % of control
